Like-named read-outs stand apart in the source and are kept apart here.
Key:
PBC = settings: in vivo; cited from earlier work
[1] = test system: NASH in adults with liver fibrosis; settings: human, in vivo; cited from earlier work
[2] = test system: nonalcoholic steatohepatitis patients; settings: long term administration; cited from earlier work
[3] = test system: STAM model of non-alcoholic steatohepatitis; test: In vivo efficacy study in the STAM model of non-alcoholic steatohepatitis (Example 1); parameters: species or system C57BL/6 mice
Method: Steatohepatitis (Treatment period: 6 to 9 wks and 9-12 weeks)
The study involves 14-day-pregnant C57BL/6 mice. NASH was established by a single subcutaneous injection of 200 μg streptozotocin (Sigma, USA) after birth and feeding with a high fat diet (HFD, 57% kcal fat, CLEA Japan, Japan) ad libitum after 4 weeks of age (day 28±2). Randomization of NASH mice into groups of 12 mice at 6 weeks of age (day 42±2) and groups of 12 mice at 9 weeks of age (day 63±2), the day before the start of treatment, respectively. NASH animals were dosed from age 6-9 weeks (Study 1), or from age 9-12 weeks (Study 2) with either: vehicle, Compound A, OCA or Compound A. A non-disease vehicle-control group of was included in both Study 1 and Study 2. These animals were fed with a normal diet (CE-2; CLEA Japan) ad libitum.
PK samples were collected and stored at ≤−60° C. Animals were dosed according to the dosing schedule below. Each animal was sacrificed 5 hours after last morning dose on the last day of study treatment (the evening dose of cenicriviroc or vehicle […] that day due to sacrifice).
Measurements: • The following parameters were measured or monitored daily: individual body weight, survival, clinical signs and behavior of mice. • Pharmacokinetic measurements: PK samples were collected from 4 animals per time point per compound. PK samples were for Compound A at hours 1 and 24 on Day 6 (n=4 per timepoint) for both monotherapy and combination groups. PK samples were taken for Cenicriviroc on Day 10 at hours 2 and 12 (n=4 per timepoint) for both monotherapy and combination groups. Only one PK sample was collected per animal using the first 8 animals per group, per the schedule below:
Mice were sacrificed at 9 weeks of age (study 1) or at 12 weeks of age (study 2).
The following samples were collected: plasma, liver (fresh liver samples for gene expression analysis were collected at 5 hr post the last morning (AM) dose for each animal), stool. Organ weight was measured.
The following biochemical assays were performed: Non-fasting blood glucose in whole blood by Life Check (Eidia, Japan); serum ALT by FUJI DRI-CHEM (Fujifilm, Japan); serum triglyceride; serum MCP-1, RANTES (CCLS) and MIP-1a/MIP-1 quantification by a commercial ELISA kit; liver triglyceride by Triglyceride E-test kit (Wako, Japan); liver hydroxyproline quantification by hydrolysis method; histological analyses for liver section; HE staining and estimation of NAFLD Activity score; Sirius-red staining and estimation of fibrosis area (with and without perivascular space subtracted); oil red staining and estimation of fat deposition area; F4/80 immunohistochemistry staining and estimation of inflammation area; alpha-SMA immunohistochemistry staining and estimation of α-SMA positive area Gene expression assays using total RNA from the liver.
Statistical tests were performed using one-way ANOVA followed by Dunnett's test and the Mann-Whitney test, as appropriate, for the multiple group comparisons. P values <0.05 are considered statistically significant.

[4] = Human study SAD/MAD: safety, tolerability and plasma pharmacokinetics; assay type: in vivo
Method: (§1) Methods: SAD: Subjects received 5 to 750 mg of Compound A (7 cohorts: 6 active, 2 placebo); subjects from one cohort returned for a second dosing cycle with a high-fat meal (3 active, 1 placebo). MAD: Subjects received 5 to 250 mg of Compound A daily for 14 days (5 cohorts; 6 active, 2 placebo). All adverse events (AEs) were captured, and plasma levels of Compound A and PD biomarkers were determined pre- and post-dosing at various time points.

ANIT-induced cholestasis = test: Rat ANIT-induced cholestasis chronic treatment model; assay type: in vivo
Method: The efficacious concentration of Compound A was determined by PK/PD modeling from the rat ANIT-induced cholestasis chronic treatment model.

STAM mouse model of NASH = test: Compound A versus OCA in the STAM mouse model of NASH (Example 2); assay type: in vivo; settings: Compound A 3 to 30 mg/kg vs OCA 25 mg/kg, 3 weeks
Source text: FIGS. 1 and 2 describe an in-vivo efficacy study of Compound A versus OCA in the STAM model of non-alcoholic steatohepatitis for a treatment period of 6-9 weeks. FIG. 2 refers to the results on NAFLD Activity Score; FIG. 1 to Sirius-red positive area.
NASH was induced for 6 weeks prior to treatment with the indicated compound (and dose). Then, they have been treated with the indicated compound for 3 weeks prior to sacrifice.
(§2) NAFLD Activity Score from H&E stained liver sections from STAM disease (NASH) animals treated for 3 weeks with the indicated compound or vehicle. Disease was initiated in animals for 6 weeks prior to dosing and then animals were treated with Vehicle-1, Vehicle-2, Compound A (3 to 30 mg/kg) or OCA (25 mg/kg) for 3 weeks. NAS was determined by the method of Kleiner (Kleiner et al. 2005).
as §2, with “Sirius red” for “NAFLD Activity Score from H&E”, “Quantitative analysis” for “NAS was determined by the method”, “Sirius Red sections were performed using ImageJ software.” for “Kleiner (Kleiner et al. 2005).”

[5] = test system: FGF19, C4, total bile acid; test: Human study SAD/MAD: PD biomarkers; assay type: in vivo
Method: as §1

SMILES: C[C@H](CCC(=O)O)[C@H]1CC[C@H]2[C@@H]3[C@@H](O)C[C@@H]4C[C@H](O)CC[C@]4(C)[C@H]3CC[C@]12C [UDCA, Ursodeoxycholic acid]
- population that does not respond (PBC): 30-40%

SMILES: CCCCOCCOc1ccc(-c2ccc3c(c2)/C=C(/C(=O)Nc2ccc([S@@+]([O-])Cc4cncn4CCC)cc2)CCCN3CC(C)C)cc1 [cenicriviroc, (S,E)-8-(4-(2-butoxyethoxy)phenyl)-1-(2-methylpropyl)-N-(4-(((1-propyl-1H-imidazol-5-yl)methyl)sulfinyl)phenyl)-1,2,3,4-tetrahydrobenzo[b]azocine-5-carboxamide]
- Adverse effects [1]: can induce fatigue or diarrhea in a small part of the patients
- Fibrosis [1]: reduction of fibrosis
- Improvement of NAS [1]: no significant impact

SMILES: CC[C@H]1[C@@H](O)[C@@H]2[C@H](CC[C@]3(C)[C@@H]([C@H](C)CCC(=O)O)CC[C@@H]23)[C@@]2(C)CC[C@@H](O)C[C@@H]12 [OCA, Obeticholic acid]
- Safety concerns [2]: can be associated with pruritus, as well as with increased LDL cholesterol

SMILES: Cn1nc(C(=O)N(Cc2ccccc2)Cc2ccc(C(=O)O)cc2)c2c1-c1cc(Cl)ccc1OC2 [Compound A, 4-((N-benzyl-8-chloro-1-methyl-1,4-dihydrochromeno[4,3-c]pyrazole-3 carboxamido)methyl)benzoic acid]
- Ballooning, NAS (mean +/− SD) ([3]; Study 1): 1.3 ± 0.8
- Ballooning, Score 0 (number of animals/group) ([3]; Study 1): 2
- Ballooning, Score 1 (number of animals/group) ([3]; Study 1): 3
- Ballooning, Score 2 (number of animals/group) ([3]; Study 1): 5
- Fibrosis, NAS (mean +/− SD) ([3]; Study 1): 0.51 ± 0.25
- Inflammatory infiltrates, Score 0 (number of animals/group) ([3]; Study 1): 7
- Inflammatory infiltrates, Score 1 (number of animals/group) ([3]; Study 1): 2
- Inflammatory infiltrates, Score 2 (number of animals/group) ([3]; Study 1): 1
- Inflammatory infiltrates, Score 3 (number of animals/group) ([3]; Study 1): 0
- NAS (mean +/− SD) ([3]; Study 1, dosed from age 6-9 weeks): 2.7 ± 1.1
- Ballooning, NAS (mean +/− SD) ([3]; Study 2): 0.7 ± 0.8
- Ballooning, Score 0 (number of animals/group) ([3]; Study 2): 5
- Ballooning, Score 1 (number of animals/group) ([3]; Study 2): 3
- Ballooning, Score 2 (number of animals/group) ([3]; Study 2): 2
- Fibrosis, NAS (mean +/− SD) ([3]; Study 2): 0.55 ± 0.32
- Inflammatory infiltrates, Score 0 (number of animals/group) ([3]; Study 2): 3
- Inflammatory infiltrates, Score 1 (number of animals/group) ([3]; Study 2): 1
- Inflammatory infiltrates, Score 2 (number of animals/group) ([3]; Study 2): 4
- Inflammatory infiltrates, Score 3 (number of animals/group) ([3]; Study 2): 2
- NAS (mean +/− SD) ([3]; Study 2, dosed from age 9-12 weeks): 2.7 ± 1.1
- Ballooning compared with the STAM-Vehicle group ([3]; both studies): trend for the reduction of ballooning
- Fibrosis area compared with the STAM-Vehicle group ([3]; both studies): trend for the reduction of the fibrosis area
- Inflammatory infiltrates compared with the STAM-Vehicle group ([3]; both studies 1 and 2): significant reduction of Inflammatory infiltrates
- NAS compared with the STAM-Vehicle group ([3]; both studies 1 and 2): significant reduction in NAS
- accumulation ratio ([4]; MAD): mild
- Steady-state reached ([4]; MAD, daily for 14 days): ≤ 5 days
- AUC decrease ([4]; SAD, with high-fat meal): 26%
- Cmax decrease ([4]; SAD, with high-fat meal): 58%
- Severe drug-related AEs ([4]; any cohort): No severe drug-related AEs were reported
- Safety and pharmacological activity ([4]; daily doses of 5 mg to 750 mg): safe and pharmacological active
- SAEs attributed ([4]; daily doses up to 250 mg for 14 days): No SAEs have been attributed
- Tmax ([4]; human, plasma, oral, SAD, with high-fat meal, read-out: median Tmax): 4 h
- Cmax ([4]; human, plasma, oral, SAD, 5-750 mg doses): 177 to 12700 ng/mL
- half-life ([4]; human, plasma, oral, SAD, 5-750 mg doses, read-out: mean t1/2): 11.7 to 23.5 h
- Tmax ([4]; human, plasma, oral, SAD, 5-750 mg doses, read-out: median plasma Tmax): 1.75 to 3 h
- Tolerability ([4]; maximum doses tested (750 mg SAD and 250 mg MAD)): well tolerated
- ALT reduction (ANIT-induced cholestasis; 1.5 mg/kg): 75%
- AST reduction (ANIT-induced cholestasis; 1.5 mg/kg): 80%
- GGT reduction (ANIT-induced cholestasis; 1.5 mg/kg): 85%
- ANIT-induced histologic alterations in the liver (ANIT-induced cholestasis; rat, in vivo): reduced the ANIT-induced histologic alterations in the liver
- Reduction of fibrosis (STAM mouse model of NASH): to a greater extent than OCA
- Reduction of hepatic steatosis (STAM mouse model of NASH): to a greater extent than OCA
- Reduction of hepatocellular ballooning (STAM mouse model of NASH): to a greater extent than OCA
- Reduction of lobular inflammation (STAM mouse model of NASH): to a greater extent than OCA
- plasma FGF19 levels ([5]; MAD, Day 14): dose-dependent increase
- plasma FGF19 median Cmax ([5]; MAD, Day 14, 250 mg): 979 pg/mL
- serum C4 levels ([5]; MAD, similar dose range): decline
- total bile acid (TBA) levels ([5]; MAD, similar dose range): decline
- FGF19 with increasing doses ([5]; doses even beyond 250 mg): continues to rise
- Serum FGF15 levels ([5]; in vivo): increased with Compound A treatment in a dose-dependent manner

Reference: patent US11052069B2, “Regimes of FXR agonists” (NOVARTIS AG, priority 2016, dated 2021)
